Assay results published in patent publication US12281121B2, “N-containing heteroaryl derivative and pharmaceutical composition comprising same as active ingredient for prevention or treatment of cancer” (VORONOI Inc., priority 2019, dated 2025).

What was measured:
Assay in all cases: ScanMAX Kinase analysis panel (DiscoverX)
Assay type in all cases: binding
SYK = biological target: T1, SYK (Homo sapiens, UniProt P43405); details: read-out: adjusted percentage (% control)
T1 construct: purchased DiscoverX ScanMAX Kinase analysis panel
Description: (§1) The following experiment was performed in order to evaluate the inhibitory activity of the compound according to the present invention against more enzymes. Specifically, for Examples 1 and 3 selected among the Example compounds of the present invention, the enzyme (kinase) selectivity was set to be measured by commissioning DiscoverX, and an experiment was conducted using a ScanMAX™ Kinase analysis panel. In this case, the concentration of the drug treated with the enzyme was set to 1 μM in DMSO, the adjusted percentage (% control) was determined in the same manner as in the following Equation 1, and the results are shown in the following Table 3. (Example compound−Positive control)/(Negative control−Positive control)×100 [Equation 1]
(§2) In addition, the enzyme selectivity of the present invention was determined to be active against the corresponding enzyme when the adjusted percentage was <35% (that is, less than 35%).

FGR = biological target: T2, FGR (Homo sapiens, UniProt P09769); details: read-out: adjusted percentage (% control)
T2 construct: purchased DiscoverX ScanMAX Kinase analysis panel
T2 sequence (P09769 whole entry): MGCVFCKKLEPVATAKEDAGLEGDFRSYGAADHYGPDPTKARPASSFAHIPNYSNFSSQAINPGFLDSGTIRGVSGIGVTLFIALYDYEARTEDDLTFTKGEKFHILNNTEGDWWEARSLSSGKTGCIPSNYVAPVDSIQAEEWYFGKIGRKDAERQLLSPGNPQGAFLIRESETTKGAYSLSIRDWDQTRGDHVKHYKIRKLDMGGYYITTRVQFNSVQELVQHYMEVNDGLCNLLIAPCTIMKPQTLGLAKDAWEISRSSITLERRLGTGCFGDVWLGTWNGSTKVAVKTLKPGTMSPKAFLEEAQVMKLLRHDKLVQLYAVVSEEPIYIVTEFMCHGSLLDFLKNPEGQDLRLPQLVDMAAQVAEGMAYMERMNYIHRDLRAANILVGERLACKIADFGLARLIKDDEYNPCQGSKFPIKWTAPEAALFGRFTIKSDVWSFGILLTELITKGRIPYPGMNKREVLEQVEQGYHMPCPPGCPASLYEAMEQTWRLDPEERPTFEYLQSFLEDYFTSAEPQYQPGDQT
Description: as §1, §2

EPHB6 = biological target: T3, EPHB6 (Homo sapiens, UniProt O15197); details: read-out: adjusted percentage (% control)
T3 construct: purchased DiscoverX ScanMAX Kinase analysis panel
Description: as §1, §2

[1] = biological target: T4, JAK2(JH1domain-catalytic) (Homo sapiens, UniProt O60674); details: read-out: adjusted percentage (% control)
T4 construct: JAK2(JH1domain-catalytic); purchased DiscoverX ScanMAX Kinase analysis panel
Description: as §1, §2

PLK4 = biological target: T5, PLK4 (Homo sapiens, UniProt O00444); details: read-out: adjusted percentage (% control)
T5 construct: purchased DiscoverX ScanMAX Kinase analysis panel
Description: as §1, §2

GCN2(Kin.Dom.2, S808G) = biological target: T6, GCN2(Kin.Dom.2, S808G) (Homo sapiens, UniProt Q9P2K8, S808G); details: read-out: adjusted percentage (% control)
T6 construct: GCN2(Kin.Dom.2,S808G); purchased DiscoverX ScanMAX Kinase analysis panel
Description: as §1, §2

TRKC = biological target: T7, TRKC (Homo sapiens, UniProt Q16288); details: read-out: adjusted percentage (% control)
T7 construct: purchased DiscoverX ScanMAX Kinase analysis panel
Description: as §1, §2

MEK3 = biological target: T8, MEK3 (Homo sapiens, UniProt P46734); details: read-out: adjusted percentage (% control)
T8 construct: purchased DiscoverX ScanMAX Kinase analysis panel
T8 sequence (P46734 whole entry): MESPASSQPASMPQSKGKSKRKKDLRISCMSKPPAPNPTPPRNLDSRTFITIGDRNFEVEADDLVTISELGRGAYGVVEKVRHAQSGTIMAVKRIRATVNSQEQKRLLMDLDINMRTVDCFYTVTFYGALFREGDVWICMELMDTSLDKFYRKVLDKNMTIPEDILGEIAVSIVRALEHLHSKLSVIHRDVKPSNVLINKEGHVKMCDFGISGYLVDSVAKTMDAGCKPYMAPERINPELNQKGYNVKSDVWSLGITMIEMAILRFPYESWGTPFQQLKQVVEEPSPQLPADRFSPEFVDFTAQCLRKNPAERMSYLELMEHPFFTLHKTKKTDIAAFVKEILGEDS
Description: as §1, §2

BLK = biological target: T9, BLK (Homo sapiens, UniProt P51451); details: read-out: adjusted percentage (% control)
T9 construct: purchased DiscoverX
T9 sequence (P51451 whole entry): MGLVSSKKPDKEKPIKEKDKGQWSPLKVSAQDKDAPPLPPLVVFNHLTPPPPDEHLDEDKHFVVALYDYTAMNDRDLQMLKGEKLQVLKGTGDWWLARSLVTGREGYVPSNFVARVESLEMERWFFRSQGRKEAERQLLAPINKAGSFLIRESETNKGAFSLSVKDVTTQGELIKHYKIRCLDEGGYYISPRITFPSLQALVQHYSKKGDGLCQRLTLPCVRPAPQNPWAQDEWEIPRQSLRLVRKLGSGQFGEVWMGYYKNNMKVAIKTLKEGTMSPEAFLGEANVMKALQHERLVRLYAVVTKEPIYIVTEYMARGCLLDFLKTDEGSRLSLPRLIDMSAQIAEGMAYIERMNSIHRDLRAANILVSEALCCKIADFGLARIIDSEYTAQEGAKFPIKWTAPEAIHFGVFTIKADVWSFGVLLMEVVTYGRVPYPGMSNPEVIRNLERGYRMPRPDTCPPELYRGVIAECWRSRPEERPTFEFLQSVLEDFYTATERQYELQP
Description: as §1, §2

FLT3(R834Q) = biological target: T10, FLT3(R834Q) (Homo sapiens, UniProt P36888, R834Q); details: read-out: adjusted percentage (% control)
T10 construct: purchased DiscoverX ScanMAX Kinase analysis panel
Description: as §1, §2

PDGFRB = biological target: T11, PDGFRB (Homo sapiens, UniProt P09619); details: read-out: adjusted percentage (% control)
T11 construct: purchased DiscoverX ScanMAX Kinase analysis panel
Description: as §1, §2

[2] = biological target: T12, ABL1(H396P)-nonphosphorylated (Homo sapiens, UniProt P00519, H396P); details: read-out: adjusted percentage (% control)
T12 construct: purchased DiscoverX
Description: as §1, §2

RET = biological target: T13, RET (Homo sapiens, UniProt P07949); details: read-out: adjusted percentage (% control)
T13 construct: purchased DiscoverX ScanMAX Kinase analysis panel
T13 sequence (P07949 29-1114): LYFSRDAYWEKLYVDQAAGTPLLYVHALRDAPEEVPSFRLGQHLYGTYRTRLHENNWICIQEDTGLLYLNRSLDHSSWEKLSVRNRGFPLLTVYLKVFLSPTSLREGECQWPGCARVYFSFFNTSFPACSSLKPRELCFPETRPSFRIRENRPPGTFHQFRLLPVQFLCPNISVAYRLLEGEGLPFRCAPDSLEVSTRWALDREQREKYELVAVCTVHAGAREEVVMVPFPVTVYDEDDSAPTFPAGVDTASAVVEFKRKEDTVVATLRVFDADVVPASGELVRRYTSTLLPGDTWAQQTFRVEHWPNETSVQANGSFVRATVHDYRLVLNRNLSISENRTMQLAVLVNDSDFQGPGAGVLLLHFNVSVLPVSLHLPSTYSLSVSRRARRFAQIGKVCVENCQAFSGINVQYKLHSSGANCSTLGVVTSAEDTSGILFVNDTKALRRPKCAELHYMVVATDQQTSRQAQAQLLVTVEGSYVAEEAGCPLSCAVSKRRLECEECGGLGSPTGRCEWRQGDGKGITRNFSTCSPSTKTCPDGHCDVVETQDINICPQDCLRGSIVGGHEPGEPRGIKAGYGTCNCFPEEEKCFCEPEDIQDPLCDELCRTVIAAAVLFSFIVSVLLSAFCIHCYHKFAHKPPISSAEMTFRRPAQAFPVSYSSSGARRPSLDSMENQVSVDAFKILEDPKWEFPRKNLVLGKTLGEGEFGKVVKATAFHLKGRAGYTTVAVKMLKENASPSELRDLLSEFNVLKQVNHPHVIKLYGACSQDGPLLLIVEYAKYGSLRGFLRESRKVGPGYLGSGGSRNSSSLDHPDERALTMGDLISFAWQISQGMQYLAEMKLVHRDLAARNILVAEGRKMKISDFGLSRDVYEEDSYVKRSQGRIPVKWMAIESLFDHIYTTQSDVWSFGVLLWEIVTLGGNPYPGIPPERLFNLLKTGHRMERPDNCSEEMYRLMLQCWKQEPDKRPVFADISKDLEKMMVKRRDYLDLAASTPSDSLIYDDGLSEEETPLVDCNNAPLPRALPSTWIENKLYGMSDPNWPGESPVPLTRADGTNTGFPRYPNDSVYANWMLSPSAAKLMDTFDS
Description: as §1, §2

MAP3K2 = biological target: T14, MAP3K2 (Homo sapiens, UniProt Q9Y2U5); details: read-out: adjusted percentage (% control)
T14 construct: purchased DiscoverX ScanMAX Kinase analysis panel
Description: as §1, §2

DDR2 = biological target: T15, DDR2 (Homo sapiens, UniProt Q16832); details: read-out: adjusted percentage (% control)
T15 construct: purchased DiscoverX
Description: as §1, §2

CSNK2A1 = biological target: T16, CSNK2A1 (Homo sapiens, UniProt P68400); details: read-out: adjusted percentage (% control)
T16 construct: purchased DiscoverX
Description: as §1, §2

FLT3(N841I) = biological target: T17, FLT3(N841I) (Homo sapiens, UniProt P36888, N841I); details: read-out: adjusted percentage (% control)
T17 construct: purchased DiscoverX ScanMAX Kinase analysis panel
Description: as §1, §2

MEK5 = biological target: T18, MEK5 (Homo sapiens, UniProt Q13163); details: read-out: adjusted percentage (% control)
T18 construct: purchased DiscoverX ScanMAX Kinase analysis panel
Description: as §1, §2

SNARK = biological target: T19, SNARK (Homo sapiens, UniProt Q9H093); details: read-out: adjusted percentage (% control)
T19 construct: purchased DiscoverX ScanMAX Kinase analysis panel
T19 sequence (Q9H093 whole entry): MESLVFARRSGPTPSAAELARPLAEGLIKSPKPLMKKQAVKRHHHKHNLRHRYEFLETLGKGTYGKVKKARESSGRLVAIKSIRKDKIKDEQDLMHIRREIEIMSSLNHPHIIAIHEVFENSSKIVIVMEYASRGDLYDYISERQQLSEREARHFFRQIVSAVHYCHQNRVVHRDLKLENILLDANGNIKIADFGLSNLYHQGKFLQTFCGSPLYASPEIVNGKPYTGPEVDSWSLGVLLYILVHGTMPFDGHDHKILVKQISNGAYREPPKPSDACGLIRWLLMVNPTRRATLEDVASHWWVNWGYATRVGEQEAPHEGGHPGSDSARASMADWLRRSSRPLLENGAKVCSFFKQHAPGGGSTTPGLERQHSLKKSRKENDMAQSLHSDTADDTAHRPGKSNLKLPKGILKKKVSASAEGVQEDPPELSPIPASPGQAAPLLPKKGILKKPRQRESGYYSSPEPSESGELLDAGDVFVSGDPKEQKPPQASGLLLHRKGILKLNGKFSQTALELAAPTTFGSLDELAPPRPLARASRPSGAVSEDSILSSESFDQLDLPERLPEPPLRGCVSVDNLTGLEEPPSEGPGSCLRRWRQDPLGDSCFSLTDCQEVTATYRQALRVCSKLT
Description: as §1, §2

FLT3(K663Q) = biological target: T20, FLT3(K663Q) (Homo sapiens, UniProt P36888, K663Q); details: read-out: adjusted percentage (% control)
T20 construct: purchased DiscoverX ScanMAX Kinase analysis panel
Description: as §1, §2

[3] = biological target: T21, ABL1(H396P)-phosphorylated (Homo sapiens, UniProt P00519, H396P); details: read-out: adjusted percentage (% control)
T21 construct: purchased DiscoverX
Description: as §1, §2

[4] = biological target: T22, ABL1(T315I)-phosphorylated (Homo sapiens, UniProt P00519, T315I); details: read-out: adjusted percentage (% control)
T22 construct: purchased DiscoverX
Description: as §1, §2

AMPK-alpha1 = biological target: T23, AMPK-alpha1 (Homo sapiens, UniProt Q13131); details: read-out: adjusted percentage (% control)
T23 construct: purchased DiscoverX
Description: as §1, §2

FLT3(D835V) = biological target: T24, FLT3(D835V) (Homo sapiens, UniProt P36888, D835V); details: read-out: adjusted percentage (% control)
T24 construct: purchased DiscoverX ScanMAX Kinase analysis panel
Description: as §1, §2

FLT3(ITD, D835V) = details: 1 μM
Description: as §1, §2

KIT(D816V) = biological target: T25, KIT(D816V) (Homo sapiens, UniProt P10721, D816V); details: read-out: adjusted percentage (% control)
T25 construct: purchased DiscoverX ScanMAX Kinase analysis panel
Description: as §1, §2

BTK = biological target: T26, BTK (Homo sapiens, UniProt Q06187); details: read-out: adjusted percentage (% control)
T26 construct: purchased DiscoverX
Description: as §1, §2

RET(M918T) = biological target: T27, RET(M918T) (Homo sapiens, UniProt P07949, M918T); details: read-out: adjusted percentage (% control)
T27 construct: purchased DiscoverX ScanMAX Kinase analysis panel
Description: as §1, §2

ITK = biological target: T28, ITK (Homo sapiens, UniProt Q08881); details: read-out: adjusted percentage (% control)
T28 construct: purchased DiscoverX ScanMAX Kinase analysis panel
T28 sequence (Q08881 whole entry): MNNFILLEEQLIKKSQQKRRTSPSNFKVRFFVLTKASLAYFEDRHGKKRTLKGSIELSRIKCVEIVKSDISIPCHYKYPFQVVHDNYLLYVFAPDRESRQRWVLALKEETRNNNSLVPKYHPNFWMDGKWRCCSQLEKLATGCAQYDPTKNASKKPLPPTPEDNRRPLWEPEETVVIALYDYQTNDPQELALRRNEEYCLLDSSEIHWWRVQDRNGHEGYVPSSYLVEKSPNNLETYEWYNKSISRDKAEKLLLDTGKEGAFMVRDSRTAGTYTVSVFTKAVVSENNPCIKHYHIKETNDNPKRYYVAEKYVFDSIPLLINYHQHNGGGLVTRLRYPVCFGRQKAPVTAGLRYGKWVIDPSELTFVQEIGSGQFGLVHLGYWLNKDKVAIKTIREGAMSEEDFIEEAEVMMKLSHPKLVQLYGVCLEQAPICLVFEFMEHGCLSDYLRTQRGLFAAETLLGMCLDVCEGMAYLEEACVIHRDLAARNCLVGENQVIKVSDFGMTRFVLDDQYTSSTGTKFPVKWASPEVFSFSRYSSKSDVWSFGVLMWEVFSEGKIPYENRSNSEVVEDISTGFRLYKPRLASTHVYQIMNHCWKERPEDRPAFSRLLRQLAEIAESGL
Description: as §1, §2

FLT3(ITD, F691L) = details: 1 μM
Description: as §1, §2

CSNK2A2 = biological target: T29, CSNK2A2 (Homo sapiens, UniProt P19784); details: read-out: adjusted percentage (% control)
T29 construct: purchased DiscoverX
T29 sequence (P19784 whole entry): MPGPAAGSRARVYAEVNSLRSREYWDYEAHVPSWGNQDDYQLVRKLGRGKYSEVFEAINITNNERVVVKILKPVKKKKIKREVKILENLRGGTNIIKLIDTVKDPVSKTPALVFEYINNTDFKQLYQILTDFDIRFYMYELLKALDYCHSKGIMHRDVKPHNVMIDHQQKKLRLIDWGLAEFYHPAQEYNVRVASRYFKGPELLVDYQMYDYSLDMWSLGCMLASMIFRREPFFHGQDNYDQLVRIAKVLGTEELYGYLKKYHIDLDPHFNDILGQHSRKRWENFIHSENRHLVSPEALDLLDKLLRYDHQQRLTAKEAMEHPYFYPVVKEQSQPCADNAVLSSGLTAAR
Description: as §1, §2

KIT(A829P) = biological target: T30, KIT(A829P) (Homo sapiens, UniProt P10721, A829P); details: read-out: adjusted percentage (% control)
T30 construct: purchased DiscoverX ScanMAX Kinase analysis panel
T30 sequence (P10721 26-976 A829P): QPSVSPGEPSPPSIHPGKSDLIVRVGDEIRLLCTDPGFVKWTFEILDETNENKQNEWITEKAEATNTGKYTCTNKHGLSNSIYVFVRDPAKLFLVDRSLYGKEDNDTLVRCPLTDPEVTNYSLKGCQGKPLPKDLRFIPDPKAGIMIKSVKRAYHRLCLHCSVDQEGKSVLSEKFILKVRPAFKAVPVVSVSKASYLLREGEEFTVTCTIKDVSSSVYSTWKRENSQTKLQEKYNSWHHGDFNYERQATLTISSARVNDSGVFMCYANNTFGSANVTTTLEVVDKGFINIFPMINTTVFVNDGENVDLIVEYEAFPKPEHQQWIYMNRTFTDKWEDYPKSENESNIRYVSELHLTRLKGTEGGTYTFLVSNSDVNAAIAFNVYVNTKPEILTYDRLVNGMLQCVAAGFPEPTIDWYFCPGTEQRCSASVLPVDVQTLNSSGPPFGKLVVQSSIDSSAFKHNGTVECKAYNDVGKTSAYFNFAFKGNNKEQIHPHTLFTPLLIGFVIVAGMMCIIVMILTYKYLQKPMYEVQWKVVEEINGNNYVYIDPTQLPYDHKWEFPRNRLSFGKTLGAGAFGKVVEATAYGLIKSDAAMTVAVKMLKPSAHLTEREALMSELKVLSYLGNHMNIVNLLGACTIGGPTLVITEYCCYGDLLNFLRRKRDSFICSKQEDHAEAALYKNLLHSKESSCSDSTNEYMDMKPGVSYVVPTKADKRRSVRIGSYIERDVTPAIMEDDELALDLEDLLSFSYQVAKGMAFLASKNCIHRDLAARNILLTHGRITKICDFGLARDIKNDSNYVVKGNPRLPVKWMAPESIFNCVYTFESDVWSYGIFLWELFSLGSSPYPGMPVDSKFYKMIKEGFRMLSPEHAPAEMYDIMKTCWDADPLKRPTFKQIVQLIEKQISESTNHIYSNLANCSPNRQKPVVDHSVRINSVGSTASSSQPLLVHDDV
Description: as §1, §2

[5] = biological target: T31, JAK1(JH2domain-pseudokinase) (Homo sapiens, UniProt P23458); details: read-out: adjusted percentage (% control)
T31 construct: JAK1(JH2domain-pseudokinase); purchased DiscoverX ScanMAX Kinase analysis panel
Description: as §1, §2

LCK = biological target: T32, LCK (Homo sapiens, UniProt P06239); details: read-out: adjusted percentage (% control)
T32 construct: purchased DiscoverX ScanMAX Kinase analysis panel
Description: as §1, §2

[6] = biological target: T33, ABL1(T315I)-nonphosphorylated (Homo sapiens, UniProt P00519, T315I); details: read-out: adjusted percentage (% control)
T33 construct: purchased DiscoverX
Description: as §1, §2

| Compound | remaining binding at 1 µM (SYK) [%] | remaining binding at 1 µM (FGR) [%] | remaining binding at 1 µM (EPHB6) [%] | remaining binding at 1 µM [1] [%] | remaining binding at 1 µM (PLK4) [%] | remaining binding at 1 µM (GCN2(Kin.Dom.2, S808G)) [%] | remaining binding at 1 µM (TRKC) [%] | remaining binding at 1 µM (MEK3) [%] | remaining binding at 1 µM (BLK) [%] | remaining binding at 1 µM (FLT3(R834Q)) [%] | remaining binding at 1 µM (PDGFRB) [%] | remaining binding at 1 µM [2] [%] | remaining binding at 1 µM (RET) [%] | remaining binding at 1 µM (MAP3K2) [%] | remaining binding at 1 µM (DDR2) [%] | remaining binding at 1 µM (CSNK2A1) [%] | remaining binding at 1 µM (FLT3(N841I)) [%] | remaining binding at 1 µM (MEK5) [%] | remaining binding at 1 µM (SNARK) [%] | remaining binding at 1 µM (FLT3(K663Q)) [%] | further results |
| --- | --- | --- | --- | --- | --- | --- | --- | --- | --- | --- | --- | --- | --- | --- | --- | --- | --- | --- | --- | --- | --- |
| COc1ccc(CN2C3CC2CN(c2ccc(-c4nc(Nc5cc(C)[nH]n5)c5occc5n4)cn2)C3)cn1 [Example 1, 2-(6-(6-((6-methoxypyridin-3-yl)methyl)-3,6-diazabicyclo[3.1.1]heptan-3-yl)pyridin-3-yl)-N-(5-methyl-1H-pyrazol-3-yl)furo[3,2-d]pyrimidin-4-amine] | 3.1 | 12 | 2.6 | 0.1 | 1.3 | 8 | 0.45 | 27 | 1.4 | 23 | 15 | 10 | 0 | 27 | 16 | 2.4 | 0 | 9.9 | 22 | 2.2 | remaining binding at 1 µM [3]: 28%; remaining binding at 1 µM [4]: 19%; remaining binding at 1 µM (AMPK-alpha1): 26%; remaining binding at 1 µM (FLT3(D835V)): 1.3%; adjusted percentage (% control) (FLT3(ITD, D835V)): 0%; remaining binding at 1 µM (KIT(D816V)): 32%; remaining binding at 1 µM (BTK): 17%; remaining binding at 1 µM (RET(M918T)): 0.9%; remaining binding at 1 µM (ITK): 2%; adjusted percentage (% control) (FLT3(ITD, F691L)): 1.4%; remaining binding at 1 µM (CSNK2A2): 0%; remaining binding at 1 µM (KIT(A829P)): 2.8%; remaining binding at 1 µM [5]: 21%; remaining binding at 1 µM (LCK): 2.5%; remaining binding at 1 µM [6]: 20% |
| COc1ccc(CN2C3CC2CN(c2ccc(-c4nc(Nc5cc(C)[nH]n5)c5ccccc5n4)cn2)C3)cn1 [Example 3, 2-(6-(6-((6-methoxypyridin-3-yl)methyl)-3,6-diazabicyclo [3.1.1]heptan-3-yl)pyridin-3-yl)-N-(5-methyl-1H-pyrazol-3-yl)quinazolin-4-amine] | 2.2 | 8.4 | 4.8 | 0 | 1.2 | 0.2 | 1 | 4.9 | 0.05 | 9.1 | 2.7 | 2.5 | 0 | 7.4 | 30 | 1.5 | 0 | 2.2 | 17 | 0.1 | remaining binding at 1 µM [3]: 21%; remaining binding at 1 µM [4]: 3.2%; remaining binding at 1 µM (AMPK-alpha1): 33%; remaining binding at 1 µM (FLT3(D835V)): 0%; adjusted percentage (% control) (FLT3(ITD, D835V)): 0%; remaining binding at 1 µM (KIT(D816V)): 6.5%; remaining binding at 1 µM (BTK): 16%; remaining binding at 1 µM (RET(M918T)): 0.25%; remaining binding at 1 µM (ITK): 1.6%; adjusted percentage (% control) (FLT3(ITD, F691L)): 8.8%; remaining binding at 1 µM (CSNK2A2): 0.3%; remaining binding at 1 µM (KIT(A829P)): 11%; remaining binding at 1 µM [5]: 2.9%; remaining binding at 1 µM (LCK): 1.8%; remaining binding at 1 µM [6]: 2.9% |
